The test system of this experiment is T1, GABAA receptors (GABAAR) in A549 cells.
T1 construct: gene GABRA3; endogenous receptors of A549 cells, pentameric; exact subunit composition not determined (members = most abundant subunit mRNAs)
The experiment is described as follows: whole-cell patch clamp, A549 cells. Format: cell-based. Particulars: inhibition of currents evoked by 2.5 μM GABA; -60 mV, pH 7.4; authors call it allosteric modulator.

pIC50: −log10 of the molar value.

In the case of `O=c1cc(-c2ccc(O)c(O)c2)oc2cc(O)cc(O)c12` [luteolin, 3′,4′,5,7-tetrahydroxyflavone], the pIC50 is 5.09.

Source of the values: paper PMC5011760, “Luteolin Attenuates Airway Mucus Overproduction via Inhibition of the GABAergic System” (Scientific Reports, 2016).
